Assays:
[1] = Inhibition of autophagy in human A375P cells assessed as fold change in p-H2AX at 3 uM incubated for 24 hrs by immunoblot analysis relative to control; assay type: functional
[2] = Inhibition of autophagy in human A375P cells assessed as fold change in BNIP3 at 3 uM incubated for 24 hrs by immunoblot analysis relative to control; assay type: functional
[3] = Inhibition of autophagy in human A375P cells assessed as fold change in p62 at 3 uM incubated for 24 hrs by immunoblot analysis relative to control; assay type: functional
[4] = Inhibition of autophagy in human A375P cells assessed as fold change in LC3BII/ LC3BI ratio at 3 uM incubated for 24 hrs by immunoblot analysis relative to control; assay type: functional
[5] = Cytotoxicity against human A375P cells incubated for 72 hrs by MTT assay; assay type: functional, cell-based
[6] = Inhibition of autophagy in human A375P cells assessed as fold change in BNIP3 at 10 uM incubated for 24 hrs by immunoblot analysis relative to control; assay type: functional
[7] = Inhibition of autophagy in human A375P cells assessed as fold change in p62 at 10 uM incubated for 24 hrs by immunoblot analysis relative to control; assay type: functional
[8] = Inhibition of autophagy in human A375P cells assessed as fold change in H2AX at 10 uM incubated for 24 hrs by immunoblot analysis relative to control; assay type: functional
[9] = Inhibition of autophagy in human A375P cells assessed as fold change in LC3BII/ LC3BI ratio at 10 uM incubated for 24 hrs by immunoblot analysis relative to control; assay type: functional

SMILES: Clc1ccc2c(NCCCCCCNCCCCCCNc3ccnc4cc(Cl)ccc34)ccnc2c1
- fold change (FC) [1]: 20.8
- fold change (FC) [2]: 1.3
- fold change (FC) [3]: 1.1
- fold change (FC) [4]: 15.2

SMILES: CCOCCOCCN(CCNc1ccnc2cc(Cl)ccc12)CCNc1ccnc2cc(Cl)ccc12
- IC50 [5]: 5990 nM

SMILES: CCOCCOCCN(CCCCCCNc1ccnc2cc(Cl)ccc12)CCCCCCNc1ccnc2cc(Cl)ccc12
- IC50 [5]: 650 nM
- fold change (FC) [2]: 5.1
- fold change (FC) [3]: 2.7
- fold change (FC) [4]: 28

SMILES: CN(CCCCCCNc1ccnc2cc(Cl)ccc12)CCCCCCNc1ccnc2cc(Cl)ccc12
- fold change (FC) [1]: 4.7
- IC50 [5]: 490 nM
- fold change (FC) [2]: 3.2
- fold change (FC) [3]: 1.8
- fold change (FC) [4]: 24

SMILES: NCCN(CCNc1ccnc2cc(Cl)ccc12)CCNc1ccnc2cc(Cl)ccc12
- fold change (FC) [6]: 0.7
- IC50 [5]: 12300 nM
- fold change (FC) [7]: 0.5
- fold change (FC) [8]: 1.4
- fold change (FC) [9]: 1

SMILES: CN(C)CCN(CCNc1ccnc2cc(Cl)ccc12)CCNc1ccnc2cc(Cl)ccc12
- fold change (FC) [6]: 1.7
- IC50 [5]: 4600 nM
- fold change (FC) [7]: 0.8
- fold change (FC) [8]: 3
- fold change (FC) [9]: 4.8

SMILES: CCCCCCCCN(CCCCCCNc1ccnc2cc(Cl)ccc12)CCCCCCNc1ccnc2cc(Cl)ccc12
- IC50 [5]: 420 nM
- fold change (FC) [2]: 0.7
- fold change (FC) [3]: 1.6
- fold change (FC) [4]: 27

SMILES: CCCCCCCCN(CCNc1ccnc2cc(Cl)ccc12)CCNc1ccnc2cc(Cl)ccc12
- IC50 [5]: 1280 nM
- fold change (FC) [2]: 5.9
- fold change (FC) [3]: 4
- fold change (FC) [4]: 26

SMILES: CNCCN(CCNc1ccnc2cc(Cl)ccc12)CCNc1ccnc2cc(Cl)ccc12
- fold change (FC) [6]: 0.4
- IC50 [5]: 13000 nM
- fold change (FC) [7]: 0.6
- fold change (FC) [8]: 1.4
- fold change (FC) [9]: 0.8

— ChEMBL document CHEMBL4823297, “Anticancer properties of bisaminoquinolines with modified linkers” (Bioorg Med Chem Lett, 2021)
